Assay results as given in US6265177A, “Enzyme assay for mutant firefly luciferase” (priority 1997, dated 2001).

What was measured:
Type in all cases: biochemical
Details in all cases: 21° C., 20 mM Tricine pH 7.8, 470 μM D-luciferin, ATP 6.25-800 μM, crude cell extract
[1] = biological target: T1, Photinus pyralis luciferase mutant H245Q (His245Gln), SEQ ID NO: 6 (Photinus pyralis, UniProt P08659, H245Q); experiment: Luciferase assay of Km for MgATP, mutant H245Q
T1 construct: ID No. 6; made in house; host or cells: E. coli JM109, crude lysed cell extract, plasmid pPW601a
Protocol: (§1) SITE DIRECTED MUTAGENESIS: Three mutagenic oligonucleotides were used to create the mutations H245A, N and Q (Ala, Asn, or Gln--see Seq ID Nos. 2, 3 & 4). The equivalent wild-type sequence is shown at Seq ID No. 5. […] The mutagenesis was carried out in accordance with the kit instructions of kit supplied by Clontech laboratories Inc, Palo Alto, Calif. USA.
The amino acid sequence of H245Q is shown in Seq. ID No. 6.
(§2) CELL CULTURE AND EXTRACTION: E. coli JM109 transformants were grown to an OD600 =1.0. Aliquots of cells expressing mutant luciferases from plasmid pPW601a, were subjected to lysis as described in the Promega technical bulletin and the lysed extracts were then stored on ice prior to assay.
(§3) ASSAY OF Km OF MUTANT LUCIFERASES: luciferase assays were performed at 21° C. using 100 μl of assay buffer (20 mM Tricine pH 7.8 containing 2.0 mM MgSO4, 0.1 mM EDTA, 33 mM dithiotheitol, 470 μM D-luciferin and ATP in the concentration range 6.25-800 μM). Each assay contained 5-10 μl of crude cell extract.
(§4) Such plots kan be used to determine the Km.

[2] = biological target: T2, Photinus pyralis luciferase, recombinant wild type (r Wild Type), luc gene SEQ ID NO: 1 (Photinus pyralis, UniProt P08659); experiment: Luciferase assay of Km for MgATP, recombinant wild type
T2 construct: made in house; host or cells: E. coli JM109, crude lysed cell extract, plasmid pPW601a
Protocol: as §2, §3, §4

[3] = biological target: T3, Photinus pyralis luciferase mutant H245N (His245Asn) (Photinus pyralis, UniProt P08659, H245N); experiment: Luciferase assay of Km for MgATP, mutant H245N
T3 construct: made in house; host or cells: E. coli JM109, crude lysed cell extract, plasmid pPW601a
Protocol: as §1, §2, §3, §4

[4] = biological target: Photinus pyralis luciferase thermostable mutant A215L (printed A21SL) (Photinus pyralis, UniProt P08659, A215L); experiment: Luciferase assay of Km for MgATP, thermostable mutant A215L
Protocol: as §2, §3, §4
*A215L is a thermostable mutant in which amino acid 215 is substituted with
lysine (see WO 96/22376 - SECRETARY OF STATE FOR DEFENCE).

[5] = biological target: T4, Photinus pyralis luciferase mutant H245A (His245Ala) (Photinus pyralis, UniProt P08659, H245A); experiment: Luciferase assay of Km for MgATP, mutant H245A
T4 construct: made in house; host or cells: E. coli JM109, crude lysed cell extract, plasmid pPW601a
Protocol: as §1, §2, §3, §4

T1 sequence (P08659 whole entry H245Q): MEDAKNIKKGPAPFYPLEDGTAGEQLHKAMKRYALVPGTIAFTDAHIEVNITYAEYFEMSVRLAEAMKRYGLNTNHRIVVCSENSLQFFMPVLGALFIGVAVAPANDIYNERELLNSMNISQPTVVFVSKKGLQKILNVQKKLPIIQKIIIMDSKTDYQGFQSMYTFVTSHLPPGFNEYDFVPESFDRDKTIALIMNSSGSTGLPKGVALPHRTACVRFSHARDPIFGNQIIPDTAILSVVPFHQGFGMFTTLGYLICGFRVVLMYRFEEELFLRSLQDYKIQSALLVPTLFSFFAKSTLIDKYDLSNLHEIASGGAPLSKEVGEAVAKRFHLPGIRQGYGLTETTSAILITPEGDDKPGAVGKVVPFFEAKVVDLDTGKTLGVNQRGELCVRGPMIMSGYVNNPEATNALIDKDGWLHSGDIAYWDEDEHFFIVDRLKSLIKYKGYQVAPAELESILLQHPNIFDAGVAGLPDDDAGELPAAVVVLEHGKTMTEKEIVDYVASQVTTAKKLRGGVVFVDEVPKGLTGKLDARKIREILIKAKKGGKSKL
T4 sequence (P08659 whole entry H245A): as the sequence (P08659 whole entry H245Q) above, with Q245A counted along it
T3 sequence (P08659 whole entry H245N): as the sequence (P08659 whole entry H245Q) above, with Q245N counted along it
T2 sequence (P08659 whole entry): as the sequence (P08659 whole entry H245Q) above, with Q245H counted along it
Chain of Photinus pyralis luciferase thermostable mutant A215L (printed A21SL) (P08659 whole entry A215L): as the sequence (P08659 whole entry H245Q) above, with A215L, Q245H counted along it

**Q.** Which results are given for `Nc1ncnc2c1ncn2[C@@H]1O[C@H](COP(=O)(O)OP(=O)(O)OP(=O)(O)O)[C@@H](O)[C@H]1O` [MgATP]?
**A.** Km [1]: 1340 µM; Km [2]: 66 µM; Km [3]: 623 µM; Km [4]: 65 µM; Km [5]: 442 µM
